How the values were obtained:
[1] = tested on: small (<30 μm) DRG neurons; assay: Current-clamp recording of action potential firing (membrane excitability); type: cell-based, mouse; conditions: 10 μM
Experimental: To investigate the mechanism of action of WN2-R and facilitate animal model experiments, we used voltage-clamp recording to test the effects of WN2-R on the native Na^+-, K^+-, and Ca^2+-mediated currents in DRG neurons. […] Furthermore, the effects of WN2-R on membrane excitability were examined in small (<30 μm) DRG neurons from mice using current-clamp recordings.
DRG isolation and culture were performed according to our previous report. Briefly, C57BL/6 mice (weight 18 to 20 g, 6 to 8 weeks) were euthanized via cervical dislocation under anesthesia. Lumbar DRGs were isolated from the L4 to L5 segments of the lumbar spinal cord. The DRG neurons were subsequently dissociated through enzymatic digestion with collagenase (0.32 mg/ml) and trypsin (0.15 mg/ml) at 37 °C for 30 min, with intermittent shaking. After centrifugation at 800 rpm for 5 min at room temperature, the cells were seeded onto poly-L-lysine-coated coverslips and cultured in DMEM (Gibco) supplemented with 10% fetal bovine serum (Gibco). […]
For recording Nav currents of DRG neurons, the bath solution contains (in mM) 30 NaCl, 1 MgCl2, 1.8 CaCl2, 5 CsCl, 5 KCl, 25 D-glucose, 5 HEPES, 0.1 CdCl2, and TEA-Cl (pH 7.4 with NaOH), and the pipette solution contains (in mM) 135 CsCl, 10 NaCl, and 5 HEPES (pH 7.4 with CsOH). The Nav current program is recorded following the above method. […]

[2] = tested on: acetic acid writhing pain model in mice; assay: Acetic acid-induced writhing test; type: in vivo, ICR mice; conditions: 15 min before acetic acid, writhing counted 30 min
Source text: Acute pain was a common type of pain with considerable value for drug development. Here, 2 acute inflammatory pain models were used to verify the acute analgesic effect of WN2-R. One such model, the acetic acid writhing pain model in mice, is a well-established acute visceral pain model. It simulates clinically relevant intestinal discomfort by stimulating the abdominal mucosa and intestine with acetic acid and has been extensively used to screen analgesic or anti-inflammatory drugs. Based on this model, we evaluated the acute analgesic effect of WN2-R using 2 drug delivery methods, i.g. and […] (n = 6). […] Furthermore, the analgesic effect of WN2-R at the same dose was similar to that of the positive control drug PF-05089771, with no significant difference between these two. […] Three male and 3 female ICR mice were used in the acetic acid-induced writhing test. Mice were preadministered with either WN2-R (5 mg/kg i.g., 1 mg/kg i.m.), PF05089771 (5 mg/kg i.g., 1 mg/kg i.m.), or saline 15 min before i.p. injection of 0.2 ml of acetic acid (0.8%, V/V). Each mouse was then placed in an individual open polyvinyl cage (30 cm × 40 cm × 30 cm). The number of writhing responses, characterized by a wave of abdominal muscle contraction followed by hind limb extension, was recorded for 30 min after acetic acid injection. These responses served as an indication of nociceptive intensity. The percentage of inhibition was calculated using the following equation: Inhibition% = (Writhing Numbervehicle – Writhing Numberdrug)/Writhing Numbervehicle × 100% [15, 47].

mice = conditions: mouse, in vivo
Experimental: VGSC inhibitors required credible subtype selectivity to void side effects caused by binding to nontarget subtypes. At a concentration of 1 μM, the inhibitory rates of WN2-R on hNav1.2, hNav1.3, hNav1.4, hNav1.5, mNav1.6, and hNav1.8 were determined (n = 3 to 6, Fig. 7A). […] To further evaluate the drug safety profile, high-dose acute toxicity experiments were conducted. Mice were administered a high dose of 30 mg/kg WN2-R through i.p. administration. The rotarod test, forced-swim test, and open field test were used to explore the effect of high-dose WN2-R on the motor ability of mice (n = 4). The rotarod test evaluated the drug's effect on motor coordination, the forced-swim test examined its impact on the overall motor system, and the open field test assessed the drug's influence on the motor and nervous systems.

Cc1ccc(Cn2cc([C@H](CC(=O)NCCN(C)C)c3ccc(F)cc3)c3ccccc32)cc1 [WN2-R]
Action potential (AP) firing in response to depolarizing currents [1]: markedly reduced
Analgesic rate (normalized number of writhing) ([2]; i.g., 5 mg/kg): 30.0%
Analgesic rate (normalized number of writhing) ([2]; i.p. (method: 1 mg/kg i.m.)): 34.1%
Survival after high dose (mice): survived normally

Reference: publication PMC11775380, “Discovery of Novel Nav1.7-Selective Inhibitors with the 1H-Indole-3-Propionamide Scaffold for Effective Pain Relief” (Research, 2025)
